Experimental data taken from patent US10086039B2, “Lamin A, an activator of longevity/anti-aging SIRT1 protein” (THE UNIVERSITY OF HONG KONG, priority 2012, dated 2018).

What was measured:
Gadd45α and catalase = Gadd45α and catalase expression in Zmpste24−/− BMSCs (Western blotting); assay type: cell-based, mouse
Method: (FIG. 4A) Resveratrol (10 μM) increased colony-forming capacity of Zmpste24^−/− BMSCs. Colony-forming assay was performed on freshly isolated bone marrow cells in 10 cm dishes in the presence and absence of resveratrol. (FIG. 4B) Colony number counting. […] Data represent mean±SEM, n=4. *P<0.05, RSV Vs Vehicle. (FIG. 4C) Left, level of prelamin A pull down by anti SIRT1 immunoprecipitates in BMSCs treated or untreated with resveratrol (2 μM) was determined by Immunoblotting; right, level of acetylated Foxo3a in resveratrol was assessed by Immunoblotting. (FIG. 4D) Levels of catalase and Gadd45α in SIRT1 or scramble siRNA treated Zmpste24^−/− BMSCs in the presence or absence of resveratrol (10 μM) determined by Western blotting. […] (FIG. 4F) Quantification of (FIG. 4E). […] (FIG. 4gG Levels of H3K9ac and IR-induced-H2AX with or without ectopic SIRT1 in wild-type and Zmpste24 null BMSCs were assessed by Western blotting. (FIG. 4H) Ectopic SIRT1 increased the colony-forming capacity of Zmpste24^−/− and wild-type BMSCs. Colony-forming assay was performed on freshly isolated cells in 6 cm dishes. (FIG. 4I) Quantification of (FIG. 4H). Data represent mean±SEM, n=5. *P<0.05, SIRT1 Vs Mock.
Western blotting was performed as described previously (Liu et al., 2005). Relative band intensity was measured by IMAGE J® and normalized to corresponding wild-type or untreated controls as indicated.

Zmpste24−/− mice = assay: Micro-CT of trabecular bone and bone mineral density in Zmpste24−/− mice; assay type: in vivo, mouse; settings: resveratrol 20 μg/ml in drinking water, 4 months
Method: Zmpste24^−/− mice have been described previously (Pendas et al., 2002). Mouse experimentation was performed in accordance with the guidelines of the Committee on the Use of Live Animals in Teaching and Research (CULATR) at the University of Hong Kong. New-born Zmpste24^−/− mice and wild-type controls were fed with resveratrol (20 μg/ml) or N-acetyl Cysteine (1 mg/ml) in drinking water. The survival of resveratrol-treated, NAC-treated, or vehicle-treated Zmpste24^−/− mice was recorded and their body weight was monitored weekly. The trabecular bone organization and bone mineral density were determined by micro-CT. The survival rate was analyzed by Kaplan-Meier method and statistical comparison was performed by Log-rank (Mantel-Cox) Test.

Oc1ccc(C=Cc2cc(O)cc(O)c2)cc1 [resveratrol]
stimulating effect on expression of Gadd45α and catalase (Gadd45α and catalase; Zmpste24−/− BMSCs with SIRT1 knocked down): abolished the stimulating effect | expression of Gadd45α and catalase (Gadd45α and catalase; Zmpste24−/− BMSCs, resveratrol 10 μM): increased | bone mineral density (Zmpste24−/− mice): increased bone mineral density | trabecular structural organization (Zmpste24−/− mice): improved the structural organization | trabecular thickness (Zmpste24−/− mice): increased the trabecular thickness
